Data taken from patent US11260049B2, “TRPV4 antagonists” (GlaxoSmithKline Intellectual Property (No. 2) Limited, priority 2016, dated 2022).
Values belong to the compound of their own block, whether it stands above or below them.

Target: human TRPV4 (Homo sapiens (Human), UniProt Q9HBA0)
Test: FLIPR assay for hTRPV4 expressed in BHK cells
Type: cell-based
Settings: inhibition of Agonist Compound (EC80)-induced calcium signal; BHK/AC9 cells expressing human TRPV4; read-out: IC50
In short: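 BHK/AC9 cells transduced with BacMam human TRPV4 (MOI 78), 15,000 cells/well, cultured 24 h at 37 °C. Loaded with 2 μM Fluo-4 AM and 500 μM Brilliant Black in HBSS for 1–1.5 h at room temperature in the dark. Intracellular calcium influx monitored by fluorescence.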

Sequence of human TRPV4 (Q9HBA0 whole entry): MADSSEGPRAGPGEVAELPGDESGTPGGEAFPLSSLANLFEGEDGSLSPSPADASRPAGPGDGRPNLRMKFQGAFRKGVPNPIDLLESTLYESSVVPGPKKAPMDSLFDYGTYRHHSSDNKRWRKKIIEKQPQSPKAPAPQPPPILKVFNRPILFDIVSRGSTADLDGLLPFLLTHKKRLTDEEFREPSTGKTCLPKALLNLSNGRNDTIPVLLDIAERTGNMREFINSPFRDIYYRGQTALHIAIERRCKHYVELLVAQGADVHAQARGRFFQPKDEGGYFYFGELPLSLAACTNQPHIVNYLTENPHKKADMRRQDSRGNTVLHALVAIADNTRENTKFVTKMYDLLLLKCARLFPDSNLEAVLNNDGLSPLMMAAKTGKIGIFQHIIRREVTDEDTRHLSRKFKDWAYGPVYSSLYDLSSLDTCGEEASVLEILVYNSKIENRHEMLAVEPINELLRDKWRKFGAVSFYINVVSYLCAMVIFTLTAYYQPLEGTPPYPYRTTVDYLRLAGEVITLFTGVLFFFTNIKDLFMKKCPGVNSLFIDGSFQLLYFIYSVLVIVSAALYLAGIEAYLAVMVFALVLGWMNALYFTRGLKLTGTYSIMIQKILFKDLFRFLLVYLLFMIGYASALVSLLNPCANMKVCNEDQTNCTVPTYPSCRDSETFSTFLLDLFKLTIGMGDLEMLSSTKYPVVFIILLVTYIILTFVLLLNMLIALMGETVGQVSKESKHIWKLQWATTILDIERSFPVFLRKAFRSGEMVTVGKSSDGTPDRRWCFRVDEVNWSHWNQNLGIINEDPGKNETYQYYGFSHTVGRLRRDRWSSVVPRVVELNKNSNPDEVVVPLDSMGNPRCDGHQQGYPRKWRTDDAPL

SMILES: N#Cc1ccc(S(=O)(=O)[C@H]2CN(S(=O)(=O)c3cc(F)c(Cl)cc3Cl)C[C@@]2(O)CO)cc1 [Example 63, 4-(((3S,4R)-1-((2,4-dichloro-5-fluorophenyl)sulfonyl)-4-hydroxy-4-(hydroxymethyl)pyrrolidin-3-yl)sulfonyl)benzonitrile]
IC50: 10 to 100 nM

IC50: 10 to 100 nM
SMILES: COC(=O)c1ccc(S(=O)(=O)[C@H]2CN(S(=O)(=O)c3ccc(Cl)cc3C(F)F)C[C@@]2(O)CO)cc1 [Example 64]

SMILES: O=S(=O)(c1ccc(Cl)cc1)[C@H]1CN(S(=O)(=O)c2ccc(Cl)cc2C(F)F)C[C@@]1(O)CO [Example 65, (3R,4S)-1-((4-chloro-2-(difluoromethyl)phenyl)sulfonyl)-4-((4-chlorophenyl)sulfonyl)-3-(hydroxymethyl)pyrrolidin-3-ol]
IC50: 10 to 100 nM

SMILES: N#CCc1cc(Cl)ccc1S(=O)(=O)N1C[C@H](S(=O)(=O)c2ccc(Cl)cc2)[C@](O)(CO)C1 [Example 66, 2-(5-chloro-2-(((3R,4S)-4-((4-chlorophenyl)sulfonyl)-3-hydroxy-3-(hydroxymethyl)pyrrolidin-1-yl)sulfonyl)phenyl)acetonitrile]
IC50: 10 to 100 nM

IC50: 10 to 100 nM
SMILES: O=S(=O)(c1ccc(Cl)cc1)[C@H]1CN(S(=O)(=O)c2cccnc2OC(F)F)C[C@@]1(O)CO [Example 67, (3R,4S)-4-((4-chlorophenyl)sulfonyl)-1-((2-(difluoromethoxy)pyridin-3-yl)sulfonyl)-3-(hydroxymethyl)pyrrolidin-3-ol]

SMILES: N#Cc1ccc(S(=O)(=O)N2C[C@H](S(=O)(=O)c3nccs3)[C@](O)(CO)C2)c(Cl)c1 [Example 68, 3-chloro-4-(((3R,4S)-3-hydroxy-3-(hydroxymethyl)-4-(thiazol-2-ylsulfonyl)pyrrolidin-1-yl)sulfonyl)benzonitrile]
IC50: 10 to 100 nM

SMILES: N#Cc1ccc(S(=O)(=O)[C@H]2CN(S(=O)(=O)c3ccc(C(F)(F)F)cc3F)C[C@@]2(O)CO)cc1F [Example 69, 2-fluoro-4-(((3S,4R)-1-((2-fluoro-4-(trifluoromethyl)phenyl)sulfonyl)-4-hydroxy-4-(hydroxymethyl)pyrrolidin-3-yl)sulfonyl)benzonitrile]
IC50: 10 to 100 nM

SMILES: Cc1cc(C#N)ccc1S(=O)(=O)N1C[C@H](S(=O)(=O)c2ccc(C#N)c(F)c2)[C@](O)(CO)C1 [Example 70, 4-(((3S,4R)-1-((4-cyano-2-methylphenyl)sulfonyl)-4-hydroxy-4-(hydroxymethyl)pyrrolidin-3-yl)sulfonyl)-2-fluorobenzonitrile]
IC50: 0.1 to 10 nM

SMILES: Cc1cc(C(F)(F)F)ccc1S(=O)(=O)N1C[C@H](S(=O)(=O)c2ccc(C#N)c(F)c2)[C@](O)(CO)C1 [Example 71, 2-fluoro-4-(((3S,4R)-4-hydroxy-4-(hydroxymethyl)-1-((2-methyl-4-(trifluoromethyl)phenyl)sulfonyl)pyrrolidin-3-yl)sulfonyl)benzonitrile]
IC50: 10 to 100 nM

SMILES: Cc1nc(C(F)(F)F)ccc1S(=O)(=O)N1C[C@H](S(=O)(=O)c2ccc(C#N)c(F)c2)[C@](O)(CO)C1 [Example 72, 2-fluoro-4-(((3S,4R)-4-hydroxy-4-(hydroxymethyl)-1-((2-methyl-6-(trifluoromethyl)pyridin-3-yl)sulfonyl)pyrrolidin-3-yl)sulfonyl)benzonitrile]
IC50: 10 to 100 nM

SMILES: N#Cc1ccc(S(=O)(=O)N2C[C@H](S(=O)(=O)c3ncc(Cl)s3)[C@](O)(CO)C2)c(Cl)c1 [Example 73, 3-chloro-4-(((3R,4S)-4-((5-chlorothiazol-2-yl)sulfonyl)-3-hydroxy-3-(hydroxymethyl)pyrrolidin-1-yl)sulfonyl)benzonitrile]
IC50: 10 to 100 nM

SMILES: N#Cc1ccc(S(=O)(=O)N2C[C@H](S(=O)(=O)c3ccc(Br)cc3)[C@](O)(CO)C2)c(Cl)c1 [Example 74, 4-(((3R,4S)-4-((4-bromophenyl)sulfonyl)-3-hydroxy-3-(hydroxymethyl)pyrrolidin-1-yl)sulfonyl)-3-chlorobenzonitrile]
IC50: 0.1 to 10 nM

SMILES: N#Cc1ccc(S(=O)(=O)[C@H]2CN(S(=O)(=O)c3ccc(Cl)cc3Cl)C[C@]2(O)CO)cc1F [Example 75, 4-(((3S,4S)-1-((2,4-dichlorophenyl)sulfonyl)-4-hydroxy-4-(hydroxymethyl)pyrrolidin-3-yl)sulfonyl)-2-fluorobenzonitrile]
IC50: 0.1 to 10 nM

SMILES: O=S(=O)(c1ccc(Cl)c(F)c1)[C@H]1CN(S(=O)(=O)c2ccc(Cl)cc2Cl)C[C@]1(O)CO [Example 76, (3S,4S)-4-((4-chloro-3-fluorophenyl)sulfonyl)-1-((2,4-dichlorophenyl)sulfonyl)-3-(hydroxymethyl)pyrrolidin-3-ol]
IC50: 10 to 100 nM

SMILES: N#Cc1cc(C(F)(F)F)ccc1S(=O)(=O)N1C[C@H](S(=O)(=O)c2ccc(F)c(F)c2)[C@@](O)(CO)C1 [Example 77, 2-(((3S,4S)-4-((3,4-difluorophenyl)sulfonyl)-3-hydroxy-3-(hydroxymethyl)pyrrolidin-1-yl)sulfonyl)-5-(trifluoromethyl)benzonitrile]
IC50: 10 to 100 nM

SMILES: O=S(=O)(c1ccc(Cl)c(F)c1)[C@H]1CN(S(=O)(=O)c2ccc(C(F)(F)F)cc2Cl)C[C@]1(O)CO [Example 78, (3S,4S)-4-((4-chloro-3-fluorophenyl)sulfonyl)-1-((2-chloro-4-(trifluoromethyl)phenyl)sulfonyl)-3-(hydroxymethyl)pyrrolidin-3-ol]
IC50: 10 to 100 nM

SMILES: N#Cc1cc(F)c(S(=O)(=O)[C@H]2CN(S(=O)(=O)c3ccc(Cl)cc3Cl)C[C@]2(O)CO)cc1F [Example 79, 4-(((3S,4S)-1-((2,4-dichlorophenyl)sulfonyl)-4-hydroxy-4-(hydroxymethyl)pyrrolidin-3-yl)sulfonyl)-2,5-difluorobenzonitrile]
IC50: 10 to 100 nM

SMILES: N#Cc1ccc(S(=O)(=O)[C@H]2CN(S(=O)(=O)c3ccc(C(F)(F)F)cc3Cl)C[C@]2(O)CO)cc1Cl [Example 80, 2-chloro-4-(((3S,4S)-1-((2-chloro-4-(trifluoromethyl)phenyl)sulfonyl)-4-hydroxy-4-(hydroxymethyl)pyrrolidin-3-yl)sulfonyl)benzonitrile]
IC50: 10 to 100 nM

SMILES: N#Cc1ccc(S(=O)(=O)N2C[C@H](S(=O)(=O)c3ccc(Br)cn3)[C@@](O)(CO)C2)c(Cl)c1 [Example 81, 4-(((3S,4S)-4-((5-bromopyridin-2-yl)sulfonyl)-3-hydroxy-3-(hydroxymethyl)pyrrolidin-1-yl)sulfonyl)-3-chlorobenzonitrile]
IC50: 10 to 100 nM

SMILES: N#Cc1ccc(S(=O)(=O)[C@H]2CN(S(=O)(=O)c3ccc(Cl)cc3Cl)C[C@@]2(O)CO)cc1 [Example 82, 4-(((3S,4R)-1-((2,4-dichlorophenyl)sulfonyl)-4-hydroxy-4-(hydroxymethyl)pyrrolidin-3-yl)sulfonyl)benzonitrile]
IC50: 0.1 to 10 nM

SMILES: N#Cc1ccc(S(=O)(=O)[C@H]2CN(S(=O)(=O)c3ccc(Cl)cc3Cl)C[C@@]2(O)CO)cc1F [Example 83, 4-(((3S,4R)-1-((2,4-dichlorophenyl)sulfonyl)-4-hydroxy-4-(hydroxymethyl)pyrrolidin-3-yl)sulfonyl)-2-fluorobenzonitrile]
IC50: 0.1 to 10 nM

SMILES: N#Cc1ccc(S(=O)(=O)[C@H]2CN(S(=O)(=O)c3ccc(Cl)cc3C#N)C[C@@]2(O)CO)cc1 [Example 84, 5-chloro-2-(((3R,4S)-4-((4-cyanophenyl)sulfonyl)-3-hydroxy-3-(hydroxymethyl)pyrrolidin-1-yl)sulfonyl)benzonitrile]
IC50: 0.1 to 10 nM

SMILES: O=S(=O)(c1ccc(F)c(F)c1)[C@H]1CN(S(=O)(=O)c2ccc(Cl)cc2Cl)C[C@@]1(O)CO [Example 85, (3R,4S)-1-((2,4-dichlorophenyl)sulfonyl)-4-((3,4-difluorophenyl)sulfonyl)-3-(hydroxymethyl)pyrrolidin-3-ol]
IC50: 10 to 100 nM

SMILES: N#Cc1ccc(S(=O)(=O)[C@H]2CN(S(=O)(=O)c3ccc(Cl)cc3Cl)C[C@@]2(O)CO)c(F)c1 [Example 86, 4-(((3S,4R)-1-((2,4-dichlorophenyl)sulfonyl)-4-hydroxy-4-(hydroxymethyl)pyrrolidin-3-yl)sulfonyl)-3-fluorobenzonitrile]
IC50: 10 to 100 nM

SMILES: N#Cc1c(F)cc(S(=O)(=O)[C@H]2CN(S(=O)(=O)c3ccc(Cl)cc3Cl)C[C@@]2(O)CO)cc1F [Example 87, 4-(((3S,4R)-1-((2,4-dichlorophenyl)sulfonyl)-4-hydroxy-4-(hydroxymethyl)pyrrolidin-3-yl)sulfonyl)-2,6-difluorobenzonitrile]
IC50: 0.1 to 10 nM

SMILES: O=S(=O)(c1ccc(Cl)c(F)c1)[C@H]1CN(S(=O)(=O)c2ccc(Cl)cc2Cl)C[C@@]1(O)CO [Example 88, (3R,4S)-4-((4-chloro-3-fluorophenyl)sulfonyl)-1-((2,4-dichlorophenyl)sulfonyl)-3-(hydroxymethyl)pyrrolidin-3-ol]
IC50: 0.1 to 10 nM

SMILES: N#Cc1ccc(S(=O)(=O)[C@H]2CN(S(=O)(=O)c3ccc(C(F)(F)F)cc3Cl)C[C@@]2(O)CO)cc1 [Example 89, 4-(((3S,4R)-1-((2-chloro-4-(trifluoromethyl)phenyl)sulfonyl)-4-hydroxy-4-(hydroxymethyl)pyrrolidin-3-yl)sulfonyl)benzonitrile]
IC50: 10 to 100 nM

SMILES: N#Cc1ccc(S(=O)(=O)[C@H]2CN(S(=O)(=O)c3ccc(C(F)(F)F)cc3Cl)C[C@]2(O)CO)cc1 [Example 90, 4-(((3S,4S)-1-((2-chloro-4-(trifluoromethyl)phenyl)sulfonyl)-4-hydroxy-4-(hydroxymethyl)pyrrolidin-3-yl)sulfonyl)benzonitrile]
IC50: 10 to 100 nM

SMILES: N#Cc1c(F)cc(S(=O)(=O)[C@H]2CN(S(=O)(=O)c3ccc(C(F)(F)F)cc3Cl)C[C@@]2(O)CO)cc1F [Example 91, 4-(((3S,4R)-1-((2-chloro-4-(trifluoromethyl)phenyl)sulfonyl)-4-hydroxy-4-(hydroxymethyl)pyrrolidin-3-yl)sulfonyl)-2,6-difluorobenzonitrile]
IC50: 10 to 100 nM

SMILES: N#Cc1ccc(S(=O)(=O)[C@H]2CN(S(=O)(=O)c3ccc(C(F)(F)F)cc3Cl)C[C@@]2(O)CO)cn1 [Example 92, 5-(((3S,4R)-1-((2-chloro-4-(trifluoromethyl)phenyl)sulfonyl)-4-hydroxy-4-(hydroxymethyl)pyrrolidin-3-yl)sulfonyl)picolinonitrile]
IC50: 10 to 100 nM
